# Biological target: T1, human leukocyte elastase (Homo sapiens, UniProt P08246)
# T1 sequence (P08246 30-267): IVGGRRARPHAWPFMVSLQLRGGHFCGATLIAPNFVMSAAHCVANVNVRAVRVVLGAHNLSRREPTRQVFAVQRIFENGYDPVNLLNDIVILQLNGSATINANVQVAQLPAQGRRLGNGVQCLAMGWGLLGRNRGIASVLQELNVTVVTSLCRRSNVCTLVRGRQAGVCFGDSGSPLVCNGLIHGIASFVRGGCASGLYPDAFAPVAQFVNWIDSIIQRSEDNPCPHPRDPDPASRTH
# Test: in vitro human leukocyte elastase inhibiting activity (fluorogenic substrate, method of JP-A-2-101017 with slight modification)
# Assay type: biochemical
# Conditions: not given
# Protocol: Thus, methoxysuccinyl-Ala-Ala-Pro-Val-7-amido-4-methylcoumarin was used as a substrate for human leukocyte elastase and the 50% inhibitory concentration (IC₅₀) was measured. The enzymatic reaction was carried out in 0.2 M Tris-hydrochloride buffer (containing 0.02 M CaCl₂ and 0.005% Triton X-100) at pH 7.2. Each mixture of test compound solution and the enzyme solution was incubated at 25°C for 20 minutes.
row,SMILES,IC50 [µM]
1,"CC(C)C(=O)Nc1ccc(C(=O)Oc2cc([N+](=O)[O-])ccc2[N+](=O)[O-])cc1 [Compound 50, 2,5-dinitrophenyl 4-(isobutanoylamino)benzoate]",0.0047
2,"CN(C)C(=O)Oc1cc(Cl)cc(OC(=O)c2ccc(NC(=O)C(C)(C)C)cc2)c1 [Compound 58, 3-chloro-5-(dimethylaminocarbonyloxy)phenyl 4-(pivaloylamino)benzoate]",0.0035
3,"CC(C)C(=O)Nc1ccc(C(=O)Oc2cc(Cl)cc(OC(=O)N(C)C)c2)cc1 [Compound 81, 3-chloro-5-(dimethylaminocarbonyloxy)phenyl 4-(isobutanoylamino)benzoate]",0.0065

# Same assay, conditions: 50% inhibitory concentration; substrate methoxysuccinyl-Ala-Ala-Pro-Val-7-amido-4-methylcoumarin; 0.2 M Tris-hydrochloride buffer (0.02 M CaCl2, 0.005% Triton X-100), pH 7.2; compound and enzyme incubated at 25°C for 20 minutes; read-out: IC50
row,SMILES,IC50 [µM]
1,"CC(C)C(=O)Nc1ccc(C(=O)Oc2cc(F)ccc2[N+](=O)[O-])cc1 [Compound 51, 3-fluoro-6-nitrophenyl 4-(isobutanoylamino)benzoate]",0.0026
2,"Cc1ccc([N+](=O)[O-])c(OC(=O)c2ccc(NC(=O)C(C)C)cc2)c1 [Compound 52, 3-methyl-6-nitrophenyl 4-(isobutanoylamino)benzoate]",0.015
3,"CC(C)C(=O)Nc1ccc(C(=O)Oc2cc(C=O)ccc2[N+](=O)[O-])cc1 [Compound 53, 3-formyl-6-nitrophenyl 4-(isobutanoylamino)benzoate]",0.0034
4,"CC(C)C(=O)Nc1ccc(C(=O)Oc2cc(C(=O)O)ccc2[N+](=O)[O-])cc1 [Compound 54, 3-hydroxycarbonyl-6-nitrophenyl 4-(isobutanoylamino)benzoate]",0.0021
5,"COC(=O)c1ccc([N+](=O)[O-])c(OC(=O)c2ccc(NC(=O)C(C)C)cc2)c1 [Compound 55, 3-methoxycarbonyl-6-nitrophenyl 4-(isobutanoylamino)benzoate]",0.0036
6,COc1ccc(COC(=O)c2ccc([N+](=O)[O-])c(OC(=O)c3ccc(NC(=O)C(C)C)cc3)c2)cc1 [Compound 56],0.0084
7,"CC(C)(C)C(=O)Nc1ccc(C(=O)Oc2cc(Cl)cc(OC(=O)C3CC3)c2)cc1 [Compound 57, 3-chloro-5-(cyclopropanecarbonyloxy)phenyl 4-(pivaloylamino)benzoate]",0.0029
8,"CC(C)(C)C(=O)Nc1ccc(C(=O)Oc2cc(F)ccc2[N+](=O)[O-])cc1 [Compound 59, 3-fluoro-6-nitrophenyl 4-(pivaloylamino)benzoate]",0.0027
9,"CC(C)(C)C(=O)Nc1ccc(C(=O)Oc2cc(C=O)ccc2[N+](=O)[O-])cc1 [Compound 60, 3-formyl-6-nitrophenyl 4-(pivaloylamino)benzoate]",0.0042
10,"CC(C)C(=O)Nc1ccc(C(=O)Oc2ccccc2C#N)cc1 [Compound 61, 2-cyanophenyl 4-(isobutanoylamino)benzoate]",0.0093
11,"CC(C)C(=O)Nc1ccc(C(=O)Oc2cc(Cl)ccc2C#N)cc1 [Compound 62, 3-chloro-6-cyanophenyl 4-(isobutanoylamino)benzoate]",0.0013
12,"COC(=O)c1ccc(Cl)cc1OC(=O)c1ccc(NC(=O)C(C)C)cc1 [Compound 63, 3-chloro-6-(methoxycarbonyl)phenyl 4-(isobutanoylamino)benzoate]",0.097
13,CC(C)C(=O)Nc1ccc(C(=O)Oc2cc(C(F)(F)F)cc(C(F)(F)F)c2)cc1 [Compound 64],0.22
14,"CC(C)C(=O)Nc1ccc(C(=O)Oc2cc(Cl)cc(Cl)c2Cl)cc1 [Compound 65, 2,3,5-trichlorophenyl 4-(isobutanoylamino)benzoate]",0.0045
15,"CC(C)C(=O)Nc1ccc(C(=O)Oc2c(Cl)cccc2Cl)cc1 [Compound 66, 2,6-dichlorophenyl 4-(isobutanoylamino)benzoate]",0.094
16,"CC(C)C(=O)Nc1ccc(C(=O)Oc2cccc(F)c2F)cc1 [Compound 67, 2,3-difluorophenyl 4-(isobutanoylamino)benzoate]",0.088
17,"CC(C)C(=O)Nc1ccc(C(=O)Oc2cc(F)ccc2F)cc1 [Compound 68, 2,5-difluorophenyl 4-(isobutanoylamino)benzoate]",0.11
18,"CC(C)C(=O)Nc1ccc(C(=O)Oc2c(F)cccc2F)cc1 [Compound 69, 2,6-difluorophenyl 4-(isobutanoylamino)benzoate]",0.025
19,"CC(C)C(=O)Nc1ccc(C(=O)Oc2cc(F)cc(F)c2)cc1 [Compound 70, 3,5-difluorophenyl 4-(isobutanoylamino)benzoate]",0.026
20,"CC(C)C(=O)Nc1ccc(C(=O)Oc2cccc(F)c2)cc1 [Compound 71, 3-fluorophenyl 4-(isobutanoylamino)benzoate]",0.31
21,"CC(C)C(=O)Nc1ccc(C(=O)Oc2cccc(Br)c2)cc1 [Compound 72, 3-bromophenyl 4-(isobutanoylamino)benzoate]",0.021
22,"CC(C)C(=O)Nc1ccc(C(=O)Oc2cc(O)cc(Cl)c2)cc1 [Compound 73, 3-chloro-5-hydroxyphenyl 4-(isobutanoylamino)benzoate]",0.11

row,SMILES,IC50 [µM]
1,"CC(=O)Oc1cc(Cl)cc(OC(=O)c2ccc(NC(=O)C(C)C)cc2)c1 [Compound 74, 3-acetoxy-5-chlorophenyl 4-(isobutanoylamino)benzoate]",0.0033
2,"CCC(=O)Oc1cc(Cl)cc(OC(=O)c2ccc(NC(=O)C(C)C)cc2)c1 [Compound 75, 3-chloro-5-propanoyloxyphenyl 4-(isobutanoylamino)benzoate]",0.0025
3,"CC(C)C(=O)Nc1ccc(C(=O)Oc2cc(Cl)cc(OC(=O)C(C)C)c2)cc1 [Compound 76, 3-chloro-5-isobutanoyloxyphenyl 4-(isobutanoylamino)benzoate]",0.0019
4,"CC(C)C(=O)Nc1ccc(C(=O)Oc2cc(Cl)cc(OC(=O)C3CC3)c2)cc1 [Compound 77, 3-chloro-5-(cyclopropanecarbonyloxy)phenyl 4-(isobutanoylamino)benzoate]",0.0038
5,"CC(C)C(=O)Nc1ccc(C(=O)Oc2cc(Cl)cc(OC(=O)C3(C)CC3)c2)cc1 [Compound 78, 3-chloro-5-(1-methylcyclopropanecarbonyloxy)phenyl 4-(isobutanoylamino)benzoate]",0.0096
6,"CC(C)C(=O)Nc1ccc(C(=O)Oc2cc(Cl)cc(OC(=O)C3CCCCC3)c2)cc1 [Compound 79, 3-chloro-5-(cyclohexanecarbonyloxy)phenyl 4-(isobutanoylamino)benzoate]",0.11
7,"CC(C)C(=O)Nc1ccc(C(=O)Oc2cc(Cl)cc(OC(=O)C=Cc3ccccc3)c2)cc1 [Compound 80, 3-cinnamoyloxy-5-chlorophenyl 4-(isobutanoylamino)benzoate]",0.024
8,"CC(C)C(=O)Nc1ccc(C(=O)Oc2cc(Cl)cc(OS(C)(=O)=O)c2)cc1 [Compound 82, 3-chloro-5-(methanesulfonyloxy)phenyl 4-(isobutanoylamino)benzoate]",0.018
9,"CCS(=O)(=O)Oc1cc(Cl)cc(OC(=O)c2ccc(NC(=O)C(C)C)cc2)c1 [Compound 83, 3-chloro-5-(ethanesulfonyloxy)phenyl 4-(isobutanoylamino)benzoate]",0.025
10,"CC(C)C(=O)Nc1ccc(C(=O)Oc2cc(Cl)cc(OS(=O)(=O)Cc3ccccc3)c2)cc1 [Compound 84, 3-chloro-5-(phenylmethanesulfonyloxy)phenyl 4-(isobutanoylamino)benzoate]",0.021
11,"CC(C)C(=O)Nc1ccc(C(=O)Oc2cc(Cl)cc(OS(=O)(=O)c3ccccc3)c2)cc1 [Compound 85, 3-benzenesulfonyloxy-5-chlorophenyl 4-(isobutanoylamino)benzoate]",0.024
12,"CC(C)C(=O)Nc1ccc(C(=O)Oc2cc(Cl)cc(OS(=O)(=O)C=Cc3ccccc3)c2)cc1 [Compound 86, 3-chloro-5-(β-styrenesulfonyloxy)phenyl 4-(isobutanoylamino)benzoate]",0.024
13,"CC(C)C(=O)Nc1ccc(C(=O)Oc2cc(Cl)cc(OS(=O)(=O)c3cccs3)c2)cc1 [Compound 87, 3-chloro-5-(2-thiophenesulfonyloxy)phenyl 4-(isobutanoylamino)benzoate]",0.019
14,"CC(C)C(=O)Nc1ccc(C(=O)Oc2cc(Cl)cc(OCc3ccccc3)c2)cc1 [Compound 88, 3-benzyloxy-5-chlorophenyl 4-(isobutanoylamino)benzoate]",0.048
15,"CC(C)C(=O)Nc1ccc(C(=O)Oc2cccc(OC(F)(F)F)c2)cc1 [Compound 89, 3-trifluoromethoxyphenyl 4-(isobutanoylamino)benzoate]",0.4
16,"COc1cc(Cl)cc(OC(=O)c2ccc(NC(=O)C(C)C)cc2)c1 [Compound 90, 3-chloro-5-methoxyphenyl 4-(isobutanoylamino)benzoate]",0.011
17,"COc1cc(OC)cc(OC(=O)c2ccc(NC(=O)C(C)C)cc2)c1 [Compound 91, 3,5-dimethoxyphenyl 4-(isobutanoylamino)benzoate]",0.3
18,"CC(C)C(=O)Nc1ccc(C(=O)Oc2cccc([N+](=O)[O-])c2)cc1 [Compound 92, 3-nitrophenyl 4-(isobutanoylamino)benzoate]",0.091
19,"CC(=O)Oc1cc(C#N)cc(OC(=O)c2ccc(NC(=O)C(C)C)cc2)c1 [Compound 93, 3-cyano-5-acetoxyphenyl 4-(isobutanoylamino)benzoate]",0.036
20,"CC(C)C(=O)Nc1ccc(C(=O)Oc2cccc(C(F)(F)F)c2)cc1 [Compound 94, 3-trifluoromethylphenyl 4-(isobutanoylamino)benzoate]",0.24
21,"N=C(N)Nc1ccc(C(=O)Oc2cc(Cl)cc(Cl)c2)cc1 [Compound 95, reference compound]",0.57

# Reference: patent EP0475531A1, “Benzoic acid phenylester compounds and elastase inhibiting compositions containing the same” (Asahi Kasei Kogyo Kabushiki Kaisha, priority 1990, dated 1992)
